Test results from patent publication US6423734B1, “Method of preventing cancer” (The Procter & Gamble Company, priority 1999, dated 2002).
“And” between values parts separate entries of the source, which are not always exact repeats. Identical values can stand only once.

Tested on: C57BL/6J-Apc^Min mice
Assay: Chemopreventive activity in Apc^Min mouse model (intestinal tumor number)
Conditions: for Tumor # ±S.D.: avg. age 118 days
Procedure: In both studies,—Carbendazim was administered orally at 1000 mg/kg, 1500 mg/kg, and 2000 mg/kg on a twice weekly to end schedule. In order to provide a positive control for the Apc^Min mouse study, Sulindac was administered ad libitum in the drinking water at 85 mg/l. Gemcitabine at 80 mg/kg, i.p., served as the positive control in the MiaPaCa study.
Female C57BL/6J-Apc^Min mice were obtained from The Jackson Laboratory at 4-5 weeks of age. The following day (Day 1), drug treatment begins. The Min (Multiple intestinal neoplasia) mouse is a strain with a mutated murine Apc (adenomatous polyposis coli) gene, which leads to the development of multiple intestinal polyps. This development is time and diet dependent, with 100% of the mice which ingest a high fat diet forming adenomas beginning around 45 days of age. These mice develop in excess of 30 adenomas throughout the intestinal tract during their 120 day life span and are therefore an ideal model for the evaluation of potential chemopreventive agents.
The mean survival times of all groups were calculated, and results are expressed as mean survival of treated mice/mean survival of control mice (T/C)×100%. A T/C value of 150 means that the mice in the treated group lived 50% longer than those of the control group; this is sometimes referred to as the increase in life span, or ILS value.
Statistics were performned on the data using primarily the log rank p-value test.

Compound: CC1=C(CC(=O)O)c2cc(F)ccc2/C1=C\c1ccc([S+](C)[O-])cc1 (stereo not drawn) [Sulindac, reference compound]
- # of non-specific Death (0.85 mg/kg p.o. ad libitum/H20, n 9): 0

Compound: COC(=O)Nc1nc2ccccc2[nH]1 [Carbendazim, 2-methoxycarbonylamino-benzimidazole]
- Tumor # ±S.D. (1000 mg/kg p.o. 2× weekly to end, control 31.70 ± 18.49, 1000 mg/kg): 24.7 and 24.71 ± 7.8
- # of non-specific Death (1000 mg/kg p.o. 2× weekly to end, n 10): 3
- # of non-specific Death (1500 mg/kg p.o. 2× weekly to end, n 10): 2
- Tumor # ±S.D. (2000 mg/kg p.o. 2× weekly to end, control 31.70 ± 18.49, 2000 mg/kg): 19.1 and 19.17 ± 7.36
- # of non-specific Death (2000 mg/kg p.o. 2× weekly to end, n 9): 3
